From patent US12440582B2, “Biothiol-activatable probe and method of use” (BOARD OF REGENTS, THE UNIVERSITY OF TEXAS SYSTEM, priority 2019, dated 2025) come the findings set out here.

Where a name gives a salt, the structure may show the parent alone.

One data set concerns liver GSH. The data set can be described thus: Liver GSH level measured ex vivo (Tietze enzymatic recycling assay). The data set is classed as in vivo, BALB/c mice. The following applies: for hepatic GSH level: 30 min p.i.
The next data set has as its system serum GSH. Briefly: Serum GSH level following APAP administration. The data set is classed as in vivo, mice. The following applies: 2 h after APAP 300 mg/kg i.p. The method, then:
FIG. 54. Serum GSH level following APAP administration. […] Data reported are means and standard deviation overlapped with data points from individual mouse. Statistical significance is evaluated by two-sample equal variance t-test. P<0.05 is considered statistically significant. N=4 mice for the experiment.

The conditions of data set [1]: in vivo. From the text:
FIGS. 39A-E. Utilization of hepatic glutathione-mediated biotransformation to enhance tumor targeting of a cisplatin prodrug. (FIG. 39A) Scheme illustrating the rationale of designing the ICG-Cis-Pt prodrug by combining temporal serum protein binding and hepatic glutathione-mediated biotransformation to slow down the rapid renal clearance of Cis-Pt prodrug and enhance its tumor targeting efficiency while avoiding predominant accumulation in MPS. […] (FIG. 39C) Tumor targeting efficiency of Cis-Pt pro drug and ICG-Cis-Pt prodrug at 48 hr p.i. (FIG. 39D) Renal clearance profiles of Cis-Pt prodrug and ICG-Cis-Pt prodrug. […] (FIG. 39E) Biodistribution of Pt in organs at 48 hr and 7 day following intravenously injection of ICG-Cis-Pt prodrug. The accumulation of ICG-Cis-Pt in MPS as well as in other major organs is low and continues to decrease over time. Statistical significance is evaluated by two-sample t-test (**p<0.01).

Another data set relates to plasma GSH. Briefly: Plasma glutathione level after DEM administration. Format: in vivo, BALB/c mice. As for the experimental part:
FIGS. 21A-B. Plasma glutathione level after DEM administration. (FIG. 21A) Plasma total glutathione (reduced GSH+2GSSG) and glutathione disulfide (GSSG) concentration at various time points after intraperitoneal injection of 1 mL/kg DEM in mice (n=3). (FIG. 21B) Plasma reduced glutathione concentration at different time was then calculated by subtracting GSSG from the total GSH concentration. The quantification of plasma total GSH and GSSG was carried out according to the established procedures (Rahman et al., 2006) via a modified Tietze enzymatic recycling assay.
Depletion of tissue GSH in vivo.

The test system of data set [2] is APAP-induced liver injury. The data set can be described thus: NAC treatment of APAP-induced liver injury (liver morphology, TUNEL). The data set is classed as in vivo, mice. The method, then: FIGS. 44A-D. Monitoring hepatic GSH depletion in drug-induced liver injury allows early treatment and improves prognosis. (FIG. 44A) Scheme of the APAP metabolism and pathophysiology process of APAP overdose induced hepatotoxicity. Hepatic GSH depletion occurs much earlier than the death of hepatocytes and the release of serum biomarkers. (FIG. 44B) Serum ALT levels of mice (N=3) at multiple time points after receiving 300 mg/kg body weight APAP. […] (FIG. 44C) Serum ALT levels of mice (N=3) at 12 h post injection of overdose APAP with NAC treatment at different time points after APAP administration. (FIG. 44D) Representative color pictures of the liver (12 h after APAP administration) as well as fluorescent microscope images of cell death in liver tissues (detected using TUNEL assay) from APAP overdosed mice without NAC treatment or receiving NAC treatment at 30 min (early treatment) and 5.5 h (delayed treatment) after APAP administration. Cell nuclei were counter-stained with DAPI. Scale bar, 20 μm. Statistical significance is evaluated by two-sample equal variance t-test (P<0.05; statistically significant). Data points are presented as means and standard deviation.
APAP-induced liver injury animal model. Healthy male BALB/c mice were pre-fasted for 5 h and then intraperitoneally injected with APAP saline solution (˜28 mg/mL) at an overdose of 300 mg/kg body weight. […]

Another data set in a line: in vivo. The following applies: nude, mouse, in vivo. The text has this:
(§1) FIGS. 30A-B. Decay of background tissue fluorescence signal over time. (FIG. 30A) Representative in vivo imaging of 1CG4-GS-Au25 injected mouse (72 hr p.i.) illustrating the region of interest (ROI) chosen for tumor (red dashed circle) and background tissue (yellow dashed circle) ICG fluorescence quantification. Red arrows indicate tumor location.

A further data set relates to MCF-7 tumor. Briefly: in vivo. Conditions: MCF-7 tumor bearing nude mice.
Excerpt: as §1

Data set [3] in a line: Tumor targeting efficiency in MCF-7 xenograft mice. Conditions: nude, mouse, tumor (MCF-7 xenograft), intravenous, 24 hr p.i., read-out: tumor targeting efficiency (ICG). Format: in vivo. From the text: Blue arrows indicate the tumors.
Data set [4] in a line: Blood pharmacokinetics after intravenous injection. Conditions: i.v.
Method: Statistical significance is evaluated using a two-sample unequal variances (Welch's) t-test (**P<0.01, ***P<0.005). Data points are reported as mean±s.d.
Both curves were fitted with two-phase exponential decay functions to obtain the weighted average half-lives.
Pharmacokinetics and biodistribution study of 1CG4-GS-Au25. […] At certain time point post-injection, blood sample (˜30 μL) was retro-orbitally collected and weighed, followed by the addition of 500 μL lysis buffer containing 20 mM cysteine (pH˜8) to liberate ICG from Au25 nanocluster and recover the quenched fluorescence of ICG. Then fluorescence of cysteine treated blood sample was measured by the in vivo imaging system to quantify ICG in blood. Afterwards, the blood sample was completely dissolved in freshly made aqua regia and the Au amount in blood was analyzed by ICP-MS.

For the molecule `CC(=O)Nc1ccc(O)cc1` [APAP, acetaminophen], the “hepatic GSH level of overdosed mice, of that of the control mice” value in the data set with liver GSH (APAP 300 mg/kg) is listed as about 36%. For the same molecule, the results for the “hepatic GSH level” value in the data set with liver GSH (APAP normal dose 60 mg/kg) and in the data set with liver GSH (APAP overdose 300 mg/kg) were 6.6±0.8 μmole/g tissue and 2.1±1.2 μmole/g tissue, respectively. Further, the “serum GSH level” value with serum GSH is “didn't change significantly”.

For `CN(C)CCCN1c2ccccc2Sc2ccc(Cl)cc21` [CPZ, chlorpromazine], the “liver GSH level” value in the data set with liver GSH (0.5 h after CPZ 100 mg/kg i.p.) is “decrease in hepatic GSH level”.

With `[NH2][Pt]([NH2])([OH])([Cl])([Cl])[O]C(=O)CCC(=O)O` [Cis-Pt prodrug, cis,cis,trans-[Pt(NH3)2Cl2(OH)(O2CCH2CH2COOH)]], the “AUC (blood retention)” value in data set [1] is reported as 7.4±0.2 % ID/g×h.

Consider `CCOC(=O)/C=C\C(=O)OCC` [DEM, diethyl maleate], for which the “liver GSH level” value with liver GSH (0.3 mg/kg body weight DEM, intraperitoneal) was about 3.1 μmole/g liver tissue; in the data set with liver GSH (0.6 mg/kg body weight DEM, intraperitoneal) it was about 0.6 μmole/g liver tissue. Moreover, in the data set with plasma GSH (single injection of DEM), the “duration of low plasma GSH level before recovery” value was in the range of 2 to 3 h. In addition, the “plasma GSH level, of the initial value” in the data set on plasma GSH (single intraperitoneal injection of DEM, 1 mL/kg) was about 12%.

With `CC(=O)N[C@@H](CS)C(=O)O` [NAC, N-acetylcysteine], the “effect on liver damage (morphology, TUNEL)” value in data set [2] (NAC at 30 min post-injection of APAP (early treatment)) is on record as “almost completely reverse the liver damage”; in data set [2] (NAC at 5.5 h after APAP overdose (delayed treatment)), “severe hemorrhage on the liver tissue as well as the pervasive death of liver cells”.

For `CC1(C)C(/C=C/C=C/C=C/C=C2\N(CCCCS(=O)(=O)O)c3ccc4ccccc4c3C2(C)C)=[N+](CCCCS(=O)(=O)[O-])c2ccc3ccccc3c21` [free ICG, indocyanine green], the half-life (as a rule, how long it takes for the measured level to halve) in the data set “in vivo” (half-life of ICG retention (fluorescence decay) in tumor) was about 3.8 h; in the data set “in vivo” (half-life of ICG signal in background tissues), 3.5 h. Further, in the data set with MCF-7 tumor, the “maximum tumor contrast index (CI)” value was determined as 1.8. Also, the tissue uptake at 24 h in data set [3] is about 0.15 %ID/g. The “ICG blood retention (AUC)” value in [4] is about 1.9 h×% ID/g.
